One molecule from patent US5922771A, “Benzocycloalkene compounds, their production and use” (Takeda Chemical Industries, Ltd., priority 1995, dated 1999) can be followed below.

Structures are written as SMILES.

In the experiment the target is melatonin receptor. Nature of the experiment: Action of inhibiting 2-[^125 I]iodomelatonin binding. More on the design: species or system chicken (white leghorn). Conditions: forebrain membranes of 7-day-old chickens; 80 pM 2-[^125 I]iodomelatonin; 90 minutes at 25° C., pH 7.7; read-out: IC50, inhibition of 2-[^125 I]iodomelatonin binding. As to the method: The forebrains of 7-day-old chickens (white leghorn) were homogenized with ice-cooled assay-buffer (50 mM Tris-HCl, pH 7.7, at 25° C.) and centrifuged at 44,000×g for 10 minutes to give pellet. The pellet was washed once with the same buffer solution, which was further homogenized with the assay-buffer to make a protein concentration of 0.3-0.4 mg/mL. The homogenate was used as a membrane sample. In a test tube, the membrane sample and a ligand (80 pM 2-[^125 I]iodomelatonin,ca. 100,000 dpm) were mixed to make the whole volume 0.5 mL. The mixture was incubated for 90 minutes at 25° C., to which was added 3 mL of ice-cooled assay buffer, immediately followed vacuum filtration on Whatman GF/B which was further washed twice with 3 mL each of ice-cold assay buffer. The radioactivity on the filter was determined by means of gamma-counter. Specific binding was calculated by subtracting the non-specific binding which was determined in the presence of 10 μM melatonin. The 50% inhibiting concentration (IC50) was determined by the log-probit analysis.

In the case of `COc1ccc2c(c1)C(CCNC(=O)C(F)(F)F)=C(c1ccccc1)C2` [Working Example 1, 2,2,2-Trifluoro-N-[2-(5-methoxy-2-phenyl-1H-inden-3-yl)ethyl]acetamide], the IC50 was 0.087 nM.

As a reminder, the IC50 is the concentration at which inhibition is half-maximal.
